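1) Cells in 96-well plates. 2) Compound, 48 h, 5 concentrations. 3) Linear interpolation between surrounding doses. 4) Unreached endpoint = highest concentration. Abbreviation: GI50, concentration required for 50% inhibition of growth. TGI denotes the concentration required for complete inhibition of growth.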 Where only a bound is given, the exact number is not on record here.

From PubChem BioAssay (NCI) come the findings set out here.

Among the test systems are BT-549 breast; NCI/ADR-RES ovarian; U251 CNS; HT29 colon; CCRF-CEM leukemia; MOLT-4 leukemia; HCT-116 colon; LOX IMVI melanoma.
Experiment in all cases: NCI anticancer screen, dose series, 48 h

Consider `CC(=O)OCCN1c2ccccc2Sc2cnccc21`, for which the TGI in the assay on BT-549 breast, in the assay with NCI/ADR-RES ovarian, in the assay with U251 CNS, in the assay on HT29 colon, in the assay with CCRF-CEM leukemia and in the assay on MOLT-4 leukemia was > 10 µM in each case. Also, the TGI with HCT-116 colon and with LOX IMVI melanoma was > 10 µM throughout.
For the molecule `O=C(N/N=C/c1ccccc1O)c1ccccc1Nc1ccnc(C(F)(F)F)c1`, the GI50 in the assay on BT-549 breast was 527 nM; in the assay on NCI/ADR-RES ovarian, 0.433 µM; in the assay with U251 CNS, 0.442 µM; in the assay on HT29 colon, 3.32 µM; with CCRF-CEM leukemia it was 0.123 µM; in the assay with MOLT-4 leukemia, 0.28 µM. In addition, the GI50 with HCT-116 colon is 0.414 µM; in the assay on LOX IMVI melanoma it was 0.279 µM. The TGI is 59 µM in the assay with BT-549 breast; 30.1 µM in the assay with NCI/ADR-RES ovarian; > 100 µM in the assay with U251 CNS; 53.5 µM in the assay with HT29 colon; > 32.3 µM in the assay with MOLT-4 leukemia; 20.9 µM with HCT-116 colon. For the same molecule, the TGI in the assay on LOX IMVI melanoma is > 54.7 µM.
In the case of `CCCn1cnc2c(SCc3ccccc3Cl)nc(N)nc21`, the GI50 was 13700 nM in the assay on BT-549 breast; 14.8 µM with NCI/ADR-RES ovarian; 5.62 µM in the assay with U251 CNS; 7.59 µM in the assay with HT29 colon; 5.9 µM in the assay with CCRF-CEM leukemia; 5.22 µM in the assay with MOLT-4 leukemia. Besides, the GI50 in the assay on HCT-116 colon was 5.2 µM; in the assay with LOX IMVI melanoma it was 4.86 µM. Besides, the TGI was 44 µM with BT-549 breast; 64.1 µM with NCI/ADR-RES ovarian; 37.8 µM in the assay on U251 CNS; > 100 µM in the assay with HT29 colon; 47.3 µM in the assay on CCRF-CEM leukemia; 34.1 µM with MOLT-4 leukemia. Besides, the TGI with HCT-116 colon turned out to be 17.5 µM; with LOX IMVI melanoma it was 20.3 µM.
For `OCc1c[nH]c2ccccc12`, the GI50 in the assay on BT-549 breast was 28900 nM; in the assay with NCI/ADR-RES ovarian it was 23.2 µM; in the assay with U251 CNS, 21.9 µM; in the assay on HT29 colon, 24 µM; in the assay with CCRF-CEM leukemia it was 26.9 µM; in the assay with MOLT-4 leukemia it was 39.1 µM. In addition, the GI50 with HCT-116 colon is 17.2 µM; with LOX IMVI melanoma, 16.2 µM. The TGI was 73.3 µM in the assay with BT-549 breast; 71.4 µM in the assay on NCI/ADR-RES ovarian; 62 µM with U251 CNS; 54.6 µM with HT29 colon; > 100 µM in the assay on CCRF-CEM leukemia; > 100 µM in the assay on MOLT-4 leukemia. Moreover, the results for the TGI with HCT-116 colon and in the assay with LOX IMVI melanoma were 31.9 µM and 32.7 µM, respectively.
On to `Nc1cc(N)c2nc(-c3ccccc3)c(Nc3ccc(Cl)c(Cl)c3)nc2c1`, for which the GI50 is 15.4 µM with NCI/ADR-RES ovarian; 4.68 µM with U251 CNS; 4.05 µM in the assay on MOLT-4 leukemia; 10.6 µM in the assay on HCT-116 colon; 4.38 µM in the assay with LOX IMVI melanoma. Besides, the TGI with NCI/ADR-RES ovarian is 55.3 µM; in the assay with U251 CNS it was > 100 µM; in the assay on MOLT-4 leukemia, > 100 µM; in the assay on HCT-116 colon, 53 µM; in the assay with LOX IMVI melanoma, > 100 µM.
`C=CCCCCCCCCC(=O)[O][Sn]([CH2]CCC)([CH2]CCC)[CH2]CCC`: the GI50 in the assay with BT-549 breast was 140 nM; in the assay on NCI/ADR-RES ovarian it was 0.163 µM; in the assay with U251 CNS, 0.165 µM; in the assay on HT29 colon it was 0.154 µM; with MOLT-4 leukemia, 0.228 µM; in the assay with HCT-116 colon it was 0.133 µM. In addition, the GI50 with LOX IMVI melanoma was 0.138 µM. For the same molecule, the TGI with BT-549 breast was 0.277 µM; with NCI/ADR-RES ovarian, 0.32 µM; in the assay on U251 CNS, 0.318 µM; with HT29 colon, 0.332 µM; with MOLT-4 leukemia it was 0.833 µM; with HCT-116 colon it was 0.262 µM. For the same molecule, the TGI in the assay with LOX IMVI melanoma is 0.278 µM.
Turning to `COc1ccc(-c2cnnc3c(-c4cccc(C(F)(F)F)c4)cnn23)cc1`, the GI50 is 3400 nM in the assay on BT-549 breast; 3.05 µM with NCI/ADR-RES ovarian; 3.61 µM in the assay with U251 CNS; > 100 µM with CCRF-CEM leukemia; > 100 µM with MOLT-4 leukemia; 3.46 µM with HCT-116 colon. The GI50 with LOX IMVI melanoma was > 100 µM. Moreover, the TGI with BT-549 breast, with NCI/ADR-RES ovarian, in the assay on U251 CNS, with CCRF-CEM leukemia, in the assay on MOLT-4 leukemia and in the assay with HCT-116 colon was > 100 µM each time. In addition, in the assay with LOX IMVI melanoma, the TGI is > 100 µM.
`O=C1Nc2c(C(F)(F)F)cccc2[C@]1(c1ccc(O)cc1)c1ccc(OC(F)(F)F)cc1`: the GI50 with BT-549 breast was 2180 nM; in the assay with NCI/ADR-RES ovarian, 8.78 µM; in the assay on U251 CNS it was 11.1 µM; in the assay with HT29 colon it was 10.3 µM; with CCRF-CEM leukemia it was 11.7 µM; with MOLT-4 leukemia it was 5.34 µM. The GI50 with HCT-116 colon was 7.73 µM. Also, the TGI worked out at 8.43 µM in the assay on BT-549 breast; 25.8 µM in the assay with NCI/ADR-RES ovarian; 24.6 µM in the assay with U251 CNS; 28.9 µM with HT29 colon; 49.9 µM in the assay with CCRF-CEM leukemia; 23.6 µM with MOLT-4 leukemia. The TGI in the assay with HCT-116 colon was determined as 23.9 µM.
Regarding `CC1=CC(=Nc2ccc(N(CCCl)CCCl)cc2)C=C(C)C1=O`, the GI50 was 1460 nM in the assay on BT-549 breast; 1.09 µM in the assay with NCI/ADR-RES ovarian; 1.02 µM in the assay on U251 CNS; 1.11 µM in the assay with HT29 colon; 0.187 µM in the assay with CCRF-CEM leukemia; 0.377 µM in the assay with MOLT-4 leukemia. For the same molecule, in the assay with HCT-116 colon, the GI50 is 0.935 µM. Besides, the TGI in the assay on BT-549 breast is 3.16 µM; with NCI/ADR-RES ovarian it was 10.1 µM; in the assay with U251 CNS, 7.33 µM; with HT29 colon, 4.59 µM; with CCRF-CEM leukemia it was 5.21 µM; in the assay with MOLT-4 leukemia it was > 25.6 µM. This molecule came in with a TGI in the assay on HCT-116 colon of 2.38 µM.
For the molecule `CC1(C)OC2[C@@H](CNC(=O)NC(=O)NC(=O)CI)O[C@@H](n3cnc4c(NC(=O)Nc5ccccc5)ncnc43)[C@H]2O1` (stereo not given in full), the GI50 is 7830 nM in the assay on BT-549 breast; 16.4 µM with NCI/ADR-RES ovarian; 10 µM with U251 CNS; 3.96 µM in the assay on HT29 colon; 1.86 µM in the assay on MOLT-4 leukemia; 10.7 µM in the assay with HCT-116 colon. For the same molecule, the GI50 in the assay with LOX IMVI melanoma is 0.907 µM. Further, the TGI with BT-549 breast is 14.7 µM; with NCI/ADR-RES ovarian it was > 50 µM; in the assay with U251 CNS it was 20.4 µM; in the assay with HT29 colon, 12.2 µM; in the assay on MOLT-4 leukemia, 9.28 µM; in the assay with HCT-116 colon it was 25.4 µM. The molecule further yielded a TGI in the assay on LOX IMVI melanoma of 1.74 µM.
